Patent publication US8597632B2, “Anionic oligosaccharide conjugates” (Glycan Biosciences LLC, priority 2008, dated 2013)
Marks after values point to notes of the source that are not given here.

Assays:
Type in all cases: in vivo
[1] = test system: guinea pig model of asthma; assay: Guinea pig model of asthma (OVA)
Guinea-pig anaphylaxis = Guinea-pig anaphylaxis model (OVA); settings: for % of the animals died (anaphylaxis): 5 mg/kg intranasal 30 min prior to OVA
Text: Guinea-pig anaphylaxis has for many years been considered the classical example of anaphylaxis, in contrast to other species (e.g. mice) that completely lack anaphylactic responses after allergen inhalation. Anaphylactic shock is believed to be due to liberation of histamine with subsequent contraction of smooth muscle after the inhalation of antigen into the airway and lungs. Contraction of the bronchial musculature completely shuts off the alveoli and prevents exhalation of air, and the animals die of asphyxia. In guinea-pigs allergen doses that are high enough to produce a significant late-phase responses (i.e. cellular eosinophilia, late phase exudation) inevitably also give rise to prior strong acute reactions that are so intense that some animals may die in acute airway constriction.
In this model the guinea pigs were sensitized to ovalbumin (OVA) twice (on days 0 and 7) by an intraperitoneal injection of 0.5 mL saline containing 100 mg Al(OH)3 and 2 μg OVA. Three weeks after the last sensitization, animals were anaesthetized and the exposure of the nasal cavity to allergen was performed by dropping OVA solution at 2 mg/mL into bilateral nasal cavities (20 μl per nasal cavity). For the negative control the animals received sensitization and challenge with saline. The animals are pretreated with either vehicle or drug (anionic oligosaccharide conjugates or Budesonide) 30 min prior to intranasal instillation of OVA. Vehicle or drugs are administered, 25 μl-50 μl/nostril. A comparison of the anionic oligosaccharide conjugates with Budesonide, as the reference compound, is included. In this study Budesonide at 0.65 mg/kg was not effective at preventing anaphylaxis as 70% of the animals in this group died by acute airway constriction.

[2] = test system: allergic rhinitis model in the guinea pig; assay: Allergic rhinitis model in the guinea pig (OVA); settings: for % inhibition of protein content of the nasal lavage fluid (plasma exudation): 5 mg/kg intranasal 30 min before OVA, 8 hours after challenge; for eosinophil and neutrophil infiltration into nasal lavage fluid: 5 mg/kg, 8 hours after challenge (FIG. 3)
[3] = test system: rat model of acute lung injury and ADRS; assay: Rat model of acute lung injury and ARDS (LPS); settings: intra-tracheal 0.5 and 2.5 mg/kg, 30 minutes before LPS
Text: A rat model of acute lung injury and ADRS was used (Jansson, Lung 182:1-9, 2004). The model is based on the understanding that endotoxin found in common pathogens (e.g. bacteria) can lead to the development of ARDS, septic shock and multiple organ dysfunction syndrome in the clinical situation. Lipopolysaccharide (LPS), a component of the outer membrane of gram-negative bacteria is the prototypical example of endotoxin and exposure of the respiratory tract of rats to LPS can be used as a model of acute lung inflammation and ARDS. […]
Excised lung gas volume (ELGV) is measured by Archimedes' principle and is based on the stable amount of air trapped within the excised lungs at a transpulmonary pressure of 0 cmH2O. […] A density determination kit (P3000, Mettler-Toledo GmbH, Sweden) and optional density determination software for the balance were used on the basis of the principle that every solid body immersed in fluid loses weight, and is expressed as g/cm^3. […] ELGV is determined by the difference between bracket weight and lung buoyancy in the liquid. […] Indication of lung tissue edema was calculated by the difference between lung tissue weight outside the beaker and bracket weight. The lung tissue density was determined by the ratio of the lung weight (difference between lung tissue weight outside the beaker and holder weight) and the air volume within the lung (ELGV). […]

mouse model of emphysema = assay: Mouse model of emphysema / COPD (cigarette smoke)
Procedure: A mouse model of emphysema was used. Acute or chronic exposure of mice to cigarette smoke lead to lung responses that in part mimic the inflammatory and structural changes observed in COPD. In this model male C57Bl/6J mice are subjected to acute or chronic smoke exposure, with normal room air being the control situation. In the acute study mice were exposed to either room air or to the smoke of five cigarettes (approximately 12 mg of tar and 0.9 mg of nicotine) for 20 minutes. In the chronic study mice were exposed to either room air or to the smoke of three cigarettes/day for 5 days/week for 6 months. The 4 groups of mice were then further divided so that mice within each group also received various anionic oligosaccharide conjugates via an inhaled route.
In the acute exposure groups of mice anionic oligosaccharide conjugates were given 30 minutes before exposure to cigarette smoke. Assessment of the efficacy of the drug for mice in the acute exposure groups involved assessment of trolox equivalent anti-oxidant capacity of the bronchoalveolar lavage fluid (BALF) at the end of smoke exposure. The BALF was examined for cytokines and chemokines that are associated with an inflammatory response. The levels of these agents were determined at 4 hours after exposure and at 24 hours after cigarette smoke exposure. A range of cytokines and chemokines was measured. These included: IL-1α, IL-1β, IL-2, IL-3, IL-4, IL-5, IL-6, IL-10, IL-12, RANTES, MIP-1α, cytokine-induced neutrophil chemoattractant (KC), TNF-α and IFN-γ). A differential cell count of the cells in the BALF was also determined.
The animals in the chronic study received the anionic oligosaccharide conjugates (including ID 9) once a day for the duration of the experiment. At the completion of the experiment animals were killed and the lungs fixed intratracheally with formalin (5%) and lung volume was measured by water displacement. […] The level of desmosine in the lung tissue was also determined. […]

[4] = 0.1 mg/kg pretreatment (FIG. 5)
[5] = drug 0.1 mg/kg intra-tracheal, MCh (10 mg/mL)
[6] = drug 0.1 mg/kg intra-tracheal, MCh (30 mg/mL)
[7] = drug 2.5 mg/kg intra-tracheal, MCh (10 mg/mL)
[8] = drug 2.5 mg/kg intra-tracheal, MCh (30 mg/mL)

Compound: CCCC1O[C@@H]2C[C@H]3[C@@H]4CCC5=CC(=O)C=C[C@]5(C)[C@H]4[C@@H](O)C[C@]3(C)[C@]2(C(=O)CO)O1 (some centres unmarked) [Budesonide, reference compound]
- inhibition of OVA induced leukocyte influx in BAL [1, 4]: 76%
- AHR: Cdyn, % increase from that of the positive control [1, 5]: 97.2%**
- AHR: RL, % inhibition from that of the positive control [1, 5]: 86.5%**
- AHR: Cdyn, % increase from that of the positive control [1, 6]: 116.2%**
- AHR: RL, % inhibition from that of the positive control [1, 6]: 105%**
- AHR: Cdyn, % increase from that of the positive control [1, 7]: 19.7%
- AHR: RL, % inhibition from that of the positive control [1, 7]: −89.4%
- AHR: Cdyn, % increase from that of the positive control [1, 8]: 70.9%**
- AHR: RL, % inhibition from that of the positive control [1, 8]: 98.9%**
- % of the animals died by acute airway constriction (Guinea-pig anaphylaxis; 0.65 mg/kg intranasal 30 min prior to OVA): 70%

Compound: (Maltopentaose)-(Et2)-(Maltopentaose) [ID 7]
- % inhibition of protein content of the nasal lavage fluid (plasma exudation) [2]: 91.4%
- eosinophil and neutrophil infiltration into nasal lavage fluid [2]: only blocked eosinophils
- % of the animals died (anaphylaxis) (Guinea-pig anaphylaxis): 27%

Compound: (Maltopentaose)-Et4-(Maltopentaose) [ID 9]
- % inhibition of protein content of the nasal lavage fluid (plasma exudation) [2]: 51.5%
- eosinophil and neutrophil infiltration into nasal lavage fluid [2]: particularly effective at blocking not only eosinophil infiltration but also neutrophil infiltration
- inhibition of OVA induced leukocyte influx in BAL [1, 4]: 62%
- inhibition of OVA induced leukocyte influx in BAL ([1]; 2.5 mg/kg pretreatment (FIG. 5)): 85%
- AHR: Cdyn, % increase from that of the positive control [1, 5]: 76.6%**
- AHR: RL, % inhibition from that of the positive control [1, 5]: 75.3%*
- AHR: Cdyn, % increase from that of the positive control [1, 6]: 90%**
- AHR: RL, % inhibition from that of the positive control [1, 6]: 84.4%**
- AHR: Cdyn, % increase from that of the positive control [1, 7]: 68.7%*
- AHR: RL, % inhibition from that of the positive control [1, 7]: 80.5%**
- AHR: Cdyn, % increase from that of the positive control [1, 8]: 128.4%**
- AHR: RL, % inhibition from that of the positive control [1, 8]: 99.5%**
- antigen induced elevated protein content of BAL ([1]; even at 0.1 mg/kg (FIG. 4)): very effectively inhibits the elevated protein content of BAL
- lung function: development of Cdyn and RL ([1]; methacholine evoked bronchoconstriction, 8 hours after provocation): inhibited the development of both Cdyn and RL
- inhibition of neutrophil infiltration (BAL) [3]: marked
- numbers of neutrophils in BALF (mouse model of emphysema; acute cigarette smoke exposure): significantly attenuated
- cellular infiltrate into BALF (mouse model of emphysema; acute cigarette smoke exposure, inhaled 30 minutes before exposure): decreased the cellular infiltrate into BALF
- anti-inflammatory activity in COPD model (mouse model of emphysema; chronic smoke exposure, once a day): could act as anti-inflammatory agents
- % of the animals died (anaphylaxis) (Guinea-pig anaphylaxis): 35%
